These are literature values, as cited in patent US10344064B2, “Engineered potent cytotoxic stapled BH3 peptides” (The Trustees of Princeton University, priority 2012, dated 2019).

The structures appear in SMILES notation.

Among the test systems are MDA231; MCF7; HeLa; PC3.
Common to all, as to settings: cisplatin, values from reference 33-36; cited from earlier work

For the molecule `N.N.[Cl][Pt][Cl]` [Cisplatin, cisplatin], the IC50 – broadly, the concentration at which inhibition is half-maximal – with MDA231 was about 10 µM; in the series with MCF7, 5 µM; in the series with HeLa, 1.34 µM; in the series on PC3, 5.6 µM.
